Several values for one entry are separate records, joined by “and”; a condition that tells them apart may be missing. Equal entries are not always repeated.
How the values were obtained:
[1] = system: Eschericia coli ATCC25922; experiment: Radial diffusion assay (RDA), E. coli; format: cell-based, Escherichia coli; design: Data (RDA antimicrobial activity, single replicates) / Mean (RDA antimicrobial activity): unit not given here; conditions: for Data (RDA antimicrobial activity, single replicates) / Mean (RDA antimicrobial activity): E. coli; for Data (RDA antimicrobial activity, single replicates): individual replicate; for Mean (RDA antimicrobial activity): mean of 3
Protocol: (§1) Peptides. Peptides were from Sigma-Genosys, generated by a peptide synthesis platform (PEPscreen®, Custom Peptide Libraries, SigmaGenosys). Yield was ˜1-6 mg, and peptide length 20 amino acids. MALDI-ToF Mass Spectrometry was perfomed on these peptides. Average Crude Purity of 20mers was ˜60%. Peptides were supplied lyophilized and in a 96-well tube rack. Prior to biological testing the PEPscreen peptides were diluted in dH2O (5 mM stock), and stored at −20 C. This stock solution was used for the subsequent experiments.
(§2) Eschericia coli ATCC25922, Staphylococcus aureus ATCC29213, and the fungal isolate Candida albicans ATCC90028 were obtained from the Department of Bacteriology, Lund University Hospital.
(§3) Radial diffusion assays (RDA) were performed essentially as described earlier (Lehrer, R. I., Rosenman, M., Harwig, S. S., Jackson, R. & Eisenhauer, P. (1991) Ultrasensitive assays for endogenous antimicrobial polypeptides, J Immunol Methods. 137, 167-73). Briefly, bacteria (E. coli, S. aureus) or fungi (C. albicans) were grown to midlogarithmic phase in 10 ml of full-strength (3% w/v) trypticase soy broth (TSB) (Becton-Dickinson, Cockeysville, Md.). The microorganisms were washed once with 10 mM Tris, pH 7.4. 4×10^6 bacterial cfu or 1×10^5 fungal cfu was added to 5 ml of the underlay agarose gel, consisting of 0.03% (w/v) TSB, 1% (w/v) low-electroendoosmosistype (Low-EEO) agarose (Sigma, St Louise Mo.) and a final concentration of 0.02% (v/v) Tween 20 (Sigma). The underlay was poured into a Ø 85 mm petri dish. After agarose solidified, 4 mm-diameter wells were punched and 6 μl of test sample was added to each well. Plates were incubated at 37° C. for 3 hours to allow diffusion of the peptides. The underlay gel was then covered with 5 ml of molten overlay (6% TSB and 1% Low-EEO agarose in dH2O). Antimicrobial activity of a peptide is visualized as a clear zone around each well after 18-24 hours of incubation at 37° C. for bacteria and 28° C. for Candida albicans. Other examples of peptides that were screened and found to show an increased effect against the above mentioned microorgansism are listed below. Some of the results are found in table 1c showing the effects against C. albicans, table 1d E. coli and table 1e S. aureus.

[2] = system: Staphylococcus aureus ATCC29213; experiment: Radial diffusion assay (RDA), S. aureus; format: cell-based; design: Data (RDA antimicrobial activity, single replicates) / Mean (RDA antimicrobial activity): unit not given here; conditions: for Data (RDA antimicrobial activity, single replicates) / Mean (RDA antimicrobial activity): S. aureus; for Data (RDA antimicrobial activity, single replicates): individual replicate; for Mean (RDA antimicrobial activity): mean of 3
Protocol: as §1, §2, §3

[3] = system: Candida albicans ATCC90028; experiment: Radial diffusion assay (RDA), C. albicans; format: cell-based; design: unit not given here; conditions: for RDA Mean, C. albicans / RDA Data (single replicates), C. albicans: Table 1c; for RDA Data (single replicates), C. albicans: individual values
Protocol: as §1, §2, §3

erythrocytes = experiment: Hemolysis assay; format: cell-based; conditions: % of TritonX-100 induced hemolysis; erythrocytes 1 h at 37° C.; peptides (3-60 μM)
Protocol: EDTA-blood was centrifuged at 800 g for 10 min, whereafter plasma and buffy coat were removed. The erythrocytes were washed three times and resuspended in 5% PBS, pH 7.4. The cells were then incubated with end-over-end rotation for 1 h at 37° C. in the presence of peptides (3-60 μM). 2% Triton X-100 (Sigma-Aldrich) served as positive control. The samples were then centrifuged at 800 g for 10 min. The absorbance of hemoglobin release was measured at λ 540 nm and is in the plot expressed as % of TritonX-100 induced hemolysis (Table 1a).

[4] = Table 1b, 10 mM Tris Hcl (pH 7.4)

CC[C@H](C)[C@H](NC(=O)[C@H](CCCCN)NC(=O)[C@H](CCC(=O)O)NC(=O)[C@H](CCCCN)NC(=O)[C@H](CO)NC(=O)[C@H](CCCCN)NC(=O)[C@H](CCCNC(=N)N)NC(=O)[C@H](Cc1ccccc1)NC(=O)[C@H](Cc1ccccc1)NC(=O)[C@H](CC(=O)O)NC(=O)CNC(=O)[C@H](CC(C)C)NC(=O)[C@@H](N)CC(C)C)C(=O)NCC(=O)N[C@@H](CCCCN)C(=O)N[C@@H](CCC(=O)O)C(=O)N[C@@H](Cc1ccccc1)C(=O)N[C@@H](CCCCN)C(=O)N[C@@H](CCCNC(=N)N)C(=O)N[C@H](C(=O)N[C@H](C(=O)N[C@@H](CCC(N)=O)C(=O)N[C@@H](CCCNC(=N)N)C(=O)N[C@H](C(=O)N[C@@H](CCCCN)C(=O)N[C@@H](CC(=O)O)C(=O)N[C@@H](Cc1ccccc1)C(=O)N[C@@H](CC(C)C)C(=O)N[C@@H](CCCNC(=N)N)C(=O)N[C@@H](CC(N)=O)C(=O)N[C@@H](CC(C)C)C(=O)N[C@H](C(=O)N1CCC[C@H]1C(=O)N[C@@H](CCCNC(=N)N)C(=O)N[C@H](C(=O)N[C@@H](CCC(=O)O)C(=O)N[C@@H](CO)C(=O)O)[C@@H](C)O)C(C)C)[C@@H](C)CC)C(C)C)[C@@H](C)CC [LL-37, reference compound]
E.coli ATCC 25922 Mean, Ingrowth* counted ([1]; Table 1a, RDA clear zone, ingrowth counted): 6.53
E.coli ATCC 25922 Mean, Ingrowth not counted ([1]; Table 1a, RDA clear zone, ingrowth not counted): 0.653
RDA values (mm) E. coli ATCC 25922 [1, 4]: 7.55 mm
S. aureus ATCC 29213 Mean ([2]; Table 1a, RDA clear zone): 4.660
RDA values (mm) S. aureus ATCC 29213 [2, 4]: 3.23 mm
Candida albicans ATCC 90028 Mean ([3]; Table 1a, RDA clear zone): 4.890
Hemolysis (%) Mean (erythrocytes): 21.464%

GKR-22: growth factor derived peptide, untagged parent of GKR22WWW; sequence not printed (GKRKKKGKGLGKKRDPCLRKYK; listed as Homo sapiens)
Data (RDA antimicrobial activity, single replicates) ([1]; peptide 0.1 μM): 0
Mean (RDA antimicrobial activity) ([1]; peptide 0.1 μM): 0.00
Data (RDA antimicrobial activity, single replicates) ([1]; peptide 0.5 μM): 0
Mean (RDA antimicrobial activity) ([1]; peptide 0.5 μM): 0.00
Data (RDA antimicrobial activity, single replicates) ([1]; peptide 1 μM): 0
Mean (RDA antimicrobial activity) ([1]; peptide 1 μM): 0.00
Data (RDA antimicrobial activity, single replicates) ([1]; peptide 5 μM): 1.88 and 1.85 and 2.07
Mean (RDA antimicrobial activity) ([1]; peptide 5 μM): 1.93
Data (RDA antimicrobial activity, single replicates) ([1]; peptide 10 μM): 2.07 and 3.47 and 2.74
Mean (RDA antimicrobial activity) ([1]; peptide 10 μM): 2.76
Data (RDA antimicrobial activity, single replicates) ([1]; peptide 50 μM): 3.68 and 3.65 and 3.61
Mean (RDA antimicrobial activity) ([1]; peptide 50 μM): 3.65
Data (RDA antimicrobial activity, single replicates) ([1]; peptide 100 μM): 4.5 and 5.24 and 4.19
Mean (RDA antimicrobial activity) ([1]; peptide 100 μM): 4.64
Data (RDA antimicrobial activity, single replicates) ([2]; peptide 0.1 μM): 0
Mean (RDA antimicrobial activity) ([2]; peptide 0.1 μM): 0.00
Data (RDA antimicrobial activity, single replicates) ([2]; peptide 0.5 μM): 0
Mean (RDA antimicrobial activity) ([2]; peptide 0.5 μM): 0.00
Data (RDA antimicrobial activity, single replicates) ([2]; peptide 1 μM): 0.4 and 0.26 and 0.25
Mean (RDA antimicrobial activity) ([2]; peptide 1 μM): 0.30
Data (RDA antimicrobial activity, single replicates) ([2]; peptide 5 μM): 1.87 and 1.67 and 2.03
Mean (RDA antimicrobial activity) ([2]; peptide 5 μM): 1.86
Data (RDA antimicrobial activity, single replicates) ([2]; peptide 10 μM): 2.37 and 2.46 and 1.95
Mean (RDA antimicrobial activity) ([2]; peptide 10 μM): 2.26
Data (RDA antimicrobial activity, single replicates) ([2]; peptide 50 μM): 3.03 and 3.09 and 2.96
Mean (RDA antimicrobial activity) ([2]; peptide 50 μM): 3.03
Data (RDA antimicrobial activity, single replicates) ([2]; peptide 100 μM): 3.88 and 3.94 and 3.07
Mean (RDA antimicrobial activity) ([2]; peptide 100 μM): 3.63
RDA Mean, C. albicans ([3]; peptide 0.1 μM): 0.00
RDA Data (single replicates), C. albicans ([3]; peptide 0.1 μM): 0.00
RDA Mean, C. albicans ([3]; peptide 0.5 μM): 0.00
RDA Data (single replicates), C. albicans ([3]; peptide 0.5 μM): 0.00
RDA Mean, C. albicans ([3]; peptide 1 μM): 0.00
RDA Data (single replicates), C. albicans ([3]; peptide 1 μM): 0.00
RDA Mean, C. albicans ([3]; peptide 5 μM): 0.00
RDA Data (single replicates), C. albicans ([3]; peptide 5 μM): 0.00
RDA Mean, C. albicans ([3]; peptide 10 μM): 0.00
RDA Data (single replicates), C. albicans ([3]; peptide 10 μM): 0.00
RDA Mean, C. albicans ([3]; peptide 50 μM): 1.04
RDA Data (single replicates), C. albicans ([3]; peptide 50 μM): 1.04 and 1.08 and 1.01
RDA Mean, C. albicans ([3]; peptide 100 μM): 3.16
RDA Data (single replicates), C. albicans ([3]; peptide 100 μM): 3.66 and 3.31 and 2.50

From patent US8227406B2, “Antimicrobial peptides” (Dermagen AB, priority 2006, dated 2012)
